Values of other authors in patent US5418161A (The Chinese University of Hong Kong, priority 1993, dated 1995).

solubility in water: soluble
SMILES: O=C1/C(=C2\Nc3ccc(S(=O)(=O)O)cc3C2=O)Nc2ccc(S(=O)(=O)O)cc21 [indigo carmine]
